What all share (format): in vivo
For test [1], the system named is Cotton. Briefly: Preemergence Herbicidal Activity, Cotton. The essentials:
(§1)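 Percent control scored after pre- or postemergence treatment at rates in kg/ha, using test compounds generally formulated in 50/50 acetone/water.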

The subject of test [2] is Soybean. Briefly: Preemergence Herbicidal Activity, Soybean. A digest of the protocol: (§2)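 Kilogram-per-hectare application rates; outcome scored by percent control of treated plants.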
For test [3], the system named is Wheat. Briefly: Preemergence Herbicidal Activity, Wheat. Particulars: Triticum aestivum, pre-emergence; for plant injury at 250 g/ha: 0.25 kg/ha. The essentials: as §2
Test [4] deals with Barnyardgrass. The test is described as follows: Preemergence Herbicidal Activity, Barnyardgrass. Particulars: Echinochloa crus-galli, pre-emergence; for pest or weed control at 250 g/ha: 0.25 kg/ha. A digest of the protocol: (§3)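 Test compounds are dosed on a per-area basis (kg/ha); plant response is reported as % C.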
Test [5] relates to Green Foxtail. Briefly: Preemergence Herbicidal Activity, Green Foxtail. Particulars: Setaria viridis, pre-emergence; for pest or weed control at 250 g/ha: 0.25 kg/ha. A digest of the protocol: as §3
Test [6] has as its system Johnsongrass. The test is described as follows: Preemergence Herbicidal Activity, Johnsongrass. Particulars: Sorghum halepense, pre-emergence; for pest or weed control at 250 g/ha: 0.25 kg/ha. The essentials:
as §3

Test [7] relates to Cotton. The test is described as follows: Postemergence Herbicidal Activity, Cotton. Particulars: Gossypium hirsutum, post-emergence; for plant injury at 250 g/ha: 0.25 kg/ha. A digest of the protocol:
as §1

For test [8], the system named is Soybean. Briefly: Postemergence Herbicidal Activity, Soybean. The following applies: Glycine max, post-emergence; for plant injury at 250 g/ha: 0.25 kg/ha. A digest of the protocol:
as §2

In test [9] the test system is Field Corn. The test is described as follows: Postemergence Herbicidal Activity, Field Corn. Particulars: Zea mays, post-emergence; for plant injury at 250 g/ha: 0.25 kg/ha. A digest of the protocol: as §2
The subject of test [10] is Rice. Briefly: Postemergence Herbicidal Activity, Rice. The following applies: Oryza sativa, post-emergence; for plant injury at 250 g/ha: 0.25 kg/ha. A digest of the protocol: as §2
For test [11], the system named is Wheat. The test is described as follows: Postemergence Herbicidal Activity, Wheat. The following applies: Triticum aestivum, post-emergence; for plant injury at 250 g/ha: 0.25 kg/ha. A digest of the protocol:
as §2

Test [12] relates to Field Bindweed. The test is described as follows: Postemergence Herbicidal Activity, Field Bindweed. Particulars: post-emergence; for pest or weed control at 250 g/ha: 0.25 kg/ha. A digest of the protocol:
as §1

Test [13] concerns Morningglory. The test is described as follows: Postemergence Herbicidal Activity, Morningglory. Particulars: Ipomoea, post-emergence; for pest or weed control at 250 g/ha: 0.25 kg/ha. A digest of the protocol:
as §1

The subject of test [14] is Velvetleaf. Briefly: Postemergence Herbicidal Activity, Velvetleaf. Particulars: Abutilon theophrasti, post-emergence; for pest or weed control at 250 g/ha: 0.25 kg/ha. The essentials: as §1
The subject of test [15] is Barnyardgrass. Briefly: Postemergence Herbicidal Activity, Barnyardgrass. The following applies: Echinochloa crus-galli, post-emergence; for pest or weed control at 250 g/ha: 0.25 kg/ha. The essentials: as §3
Test [16] deals with Green Foxtail. Briefly: Postemergence Herbicidal Activity, Green Foxtail. The following applies: Setaria viridis, post-emergence; for pest or weed control at 250 g/ha: 0.25 kg/ha. A digest of the protocol: as §3
In test [17] the test system is Johnsongrass. The test is described as follows: Postemergence Herbicidal Activity, Johnsongrass. Particulars: Sorghum halepense, post-emergence; for pest or weed control at 250 g/ha: 0.25 kg/ha. A digest of the protocol:
as §3

A further test relates to weeds of wide spectrum. Briefly: weed control of paddy rice in pots, weeds. The following applies: 1 day and 11 day treatments, e.g. about 0.06 kg/ha or less. From the text:
(§4) In addition, tests of the effectiveness of weed control of paddy rice were done in pots containing clay loam paddy soil under water maintained at a depth of 3 cm. In one test tubers of narrowleaf arrowhead (Sagittaria pymaea) and rhizomes of flatsedge (Cyperus serotinus) were planted in pots at depth of 2 cm and 0.5 cm respectively, rice seedlings of 2.2 leaf state were transplanted in depth of 2 cm and 0 cm and a controlled amount of a 10% wp (wettable powder) formulation of the herbicidal compound in water was dropped into the water over the soil at 1 day and 11 days, respectively, after transplanting. In another test, seeds of various weed species (including barnyardgrass, Echinochoa crus-galli; small flower umbrellaplant, Cyperus difformis; bulrush, Scripus juncoides; Japanese ducksalad, Monochoria vaginalis; annual broadleaf weeds; and narrowleaf waterplantain, Alisma canaliculatium) were sown on the surface of the soil and the same (1 day and 11 day) herbicide applications were made.

Test [18] deals with Rice. The test is described as follows: weed control of paddy rice in pots, transplanted rice. The following applies: rice transplanted at a depth of 2 cm.
Excerpt: as §4

Test [19] has as its system soybeans, corn, barley, wheat, rice (e.g. paddy rice), beans, peas, peanuts and potatoes. Briefly: selective herbicidal use on crops, especially preemergent.
A further test has as its system broadleafed weeds. Briefly: postemergence control of broadleaf weeds.
The test system of a further test is broad leaf weeds. Briefly: preemergence use against broad leaf weeds. The following applies: with crops such as corn, rice, wheat and soybeans.
Test [20] relates to Field Corn. The test is described as follows: Preemergence Herbicidal Activity, Field Corn. The following applies: Zea mays, pre-emergence. A digest of the protocol: as §2
Test [21] concerns Rice. Briefly: Preemergence Herbicidal Activity, Rice. The following applies: Oryza sativa, pre-emergence. A digest of the protocol: as §2
Test [22] relates to Field Bindweed. Briefly: Preemergence Herbicidal Activity, Field Bindweed. Particulars: pre-emergence. A digest of the protocol: as §1
Test [23] has as its system Morningglory. Briefly: Preemergence Herbicidal Activity, Morningglory. The following applies: Ipomoea, pre-emergence. A digest of the protocol: as §1
Test [24] has as its system Velvetleaf. Briefly: Preemergence Herbicidal Activity, Velvetleaf. The following applies: Abutilon theophrasti, pre-emergence. A digest of the protocol:
as §1

The subject of a further test is corn, wheat and soybeans. Briefly: postemergence crop selectivity.

One may read the plant injury as the degree to which the test organism was suppressed or injured, in per cent. A higher plant injury goes with strong suppression. By pest or weed control is commonly meant the degree to which the test organism was suppressed or injured, in per cent. Higher therefore signals a strong effect. On to `CCS(=O)(=O)Nc1cc(-n2nnn(CCCF)c2=O)c(F)cc1Cl` [Compound 4, 1-[4-chloro-2-fluoro-5-(ethylsulfonylamino)phenyl]-1,4-dihydro-4-(3-fluoropropyl)-5H-tetrazol-5-one], for which the “Preemergence Herbicidal Activity” value in the test on Cotton [1] (0.25 kg/ha) was 95 % Control; in the test with Soybean [2] (0.25 kg/ha), 0 % Control. Further, the plant injury at 250 g/ha with Wheat [3] was determined as 10%; in the test with Cotton [7], 100%; in the test with Soybean [8] it was 60%; in the test on Field Corn [9], 50%; in the test on Rice [10] it was 20%; with Wheat [11], 20%. Moreover, the pest or weed control at 250 g/ha with Barnyardgrass [4] amounted to 80%; in the test with Green Foxtail [5], 20%; in the test on Johnsongrass [6] it was 30%; in the test on Field Bindweed [12], 100%; in the test with Morningglory [13], 95%; with Velvetleaf [14] it was 100%. The pest or weed control at 250 g/ha in the test with Barnyardgrass [15] turned out to be 50%; in the test with Green Foxtail [16], 80%; in the test on Johnsongrass [17], 20%. The “activity against weeds (paddy)” value with weeds of wide spectrum is reported as “very high activity”. Further, the “selectivity (paddy rice)” value with Rice [18] is given as “selectivity favorable to rice”. The effective rate in test [19] ("effective at low rates, e.g. at about 0.5 kg/ha and below") is reported as at most 0.5 kg/ha. Also, the selective herbicidal effectiveness entry in test [19] (especially preemergent use on crops) was “particularly effective”. The “control of broadleafed weeds, postemergent” value in the test on broadleafed weeds (plantings of corn, wheat, barley, oats, rice and sorghum, about 30 to 250 g/ha, e.g. 125 g/ha) is on record as “very good control”. Moreover, in the test on broad leaf weeds, the “usefulness preemergently against broad leaf weeds” value is “particularly useful”.

For `CCS(=O)(=O)N(c1cc(-n2nnn(CCCF)c2=O)c(F)cc1Cl)S(C)(=O)=O` [Compound 11, 1-[4-chloro-2-fluoro-5-[(N--ethylsulfonyl-N--methylsulfonyl)amino]-phenyl]-1,4-dihydro-4-(3-fluoropropyl)-5H--tetrazol-5-one], the plant injury at 500 g/ha with Cotton [1] (Gossypium hirsutum, pre-emergence, 0.5 kg/ha) worked out at 100%; in the test with Soybean [2] (Glycine max, pre-emergence, 0.5 kg/ha) it was 30%; in the test on Field Corn [20] (0.5 kg/ha), 95%; with Rice [21] (0.5 kg/ha), 80%; in the test with Wheat [3] (0.5 kg/ha) it was 80%; in the test with Cotton [7] (0.5 kg/ha), 100%. The plant injury at 500 g/ha amounted to 60% with Soybean [8] (0.5 kg/ha), 80% in the test with Field Corn [9] (0.5 kg/ha), 40% with Rice [10] (0.5 kg/ha) and 70% with Wheat [11] (0.5 kg/ha). Moreover, the pest or weed control at 500 g/ha in the test on Field Bindweed [22] (0.5 kg/ha) was found to be 100%; in the test with Morningglory [23] (0.5 kg/ha) it was 100%; in the test with Velvetleaf [24] (0.5 kg/ha), 100%; in the test with Barnyardgrass [4] (0.5 kg/ha), 100%; with Green Foxtail [5] (0.5 kg/ha), 100%; with Johnsongrass [6] (0.5 kg/ha) it was 90%. Moreover, the pest or weed control at 500 g/ha in the test with Field Bindweed [12] (0.5 kg/ha) came to 100%; with Morningglory [13] (0.5 kg/ha), 80%; in the test on Velvetleaf [14] (0.5 kg/ha), 100%; with Barnyardgrass [15] (0.5 kg/ha), 80%; in the test with Green Foxtail [16] (0.5 kg/ha), 80%; in the test with Johnsongrass [17] (0.5 kg/ha), 50%. Besides, the “results in postemergence use against broadleafed weeds” value in the test on broadleafed weeds (postemergence, corn, wheat and soybeans) is “particularly good results”. Moreover, in the test on corn, wheat and soybeans, the “selectivity for crops, postemergence” value is listed as “favorable selectivity”.

As for `CCS(=O)(=O)Nc1cc(-n2nnn(CCCF)c2=O)c(F)cc1Br` [Compound 34, 1-[4-Bromo-2-fluoro-5-(N--ethylsulfonylamino)phenyl]-4,5-dihydro-], the plant injury at 250 g/ha with Cotton [1] (Gossypium hirsutum, pre-emergence, 0.25 kg/ha) is 95%; in the test on Soybean [2] (Glycine max, pre-emergence, 0.25 kg/ha) it was 20%; in the test with Field Corn [20] (0.25 kg/ha), 60%; with Rice [21] (0.25 kg/ha) it was 60%; in the test on Wheat [3], 0%; in the test on Cotton [7], 100%. The plant injury at 250 g/ha with Soybean [8] came out at 70%; in the test on Field Corn [9], 40%; with Rice [10] it was 70%; with Wheat [11] it was 40%. For the same compound, the pest or weed control at 250 g/ha worked out at 100% in the test with Field Bindweed [22] (0.25 kg/ha); 100% in the test on Morningglory [23] (0.25 kg/ha); 100% with Velvetleaf [24] (0.25 kg/ha); 95% in the test with Barnyardgrass [4]; 70% in the test on Green Foxtail [5]; 50% in the test on Johnsongrass [6]. Also, the pest or weed control at 250 g/ha with Field Bindweed [12] was found to be 100%; with Morningglory [13] it was 100%; in the test with Velvetleaf [14], 100%; in the test on Barnyardgrass [15], 70%; in the test on Green Foxtail [16] it was 90%; with Johnsongrass [17], 50%. Also, the “usefulness preemergently against broad leaf weeds” value in the test on broad leaf weeds is reported as “particularly useful”.

For `CCCn1nnn(-c2cc(NS(=O)(=O)CC)c(Cl)cc2F)c1=O` [Compound 51, 1-[4-Chloro-2-fluoro-5-(N--ethylsulfonylamino)phenyl]-4,5-dihydro-4-propyl-5H--tetrazol-5-one], the plant injury at 2000 g/ha with Cotton [1] (Gossypium hirsutum, pre-emergence, 2.0 kg/ha) amounted to 100%; with Soybean [2] (Glycine max, pre-emergence, 2.0 kg/ha), 20%; with Field Corn [20] (2.0 kg/ha) it was 70%; in the test with Rice [21] (2.0 kg/ha), 30%; with Wheat [3] (2.0 kg/ha) it was 20%; in the test with Cotton [7] (2.0 kg/ha) it was 100%. The plant injury at 2000 g/ha is 70% in the test with Soybean [8] (2.0 kg/ha), 60% with Field Corn [9] (2.0 kg/ha), 60% in the test on Rice [10] (2.0 kg/ha) and 70% in the test with Wheat [11] (2.0 kg/ha). Also, the pest or weed control at 2000 g/ha in the test on Field Bindweed [22] (2.0 kg/ha) came out at 100%; with Morningglory [23] (2.0 kg/ha) it was 100%; in the test with Velvetleaf [24] (2.0 kg/ha), 100%; with Barnyardgrass [4] (2.0 kg/ha) it was 70%; with Green Foxtail [5] (2.0 kg/ha), 95%; in the test with Johnsongrass [6] (2.0 kg/ha) it was 10%. In addition, the pest or weed control at 2000 g/ha turned out to be 100% in the test on Field Bindweed [12] (2.0 kg/ha); 100% in the test with Morningglory [13] (2.0 kg/ha); 100% with Velvetleaf [14] (2.0 kg/ha); 80% in the test with Barnyardgrass [15] (2.0 kg/ha); 80% in the test with Green Foxtail [16] (2.0 kg/ha); 70% in the test with Johnsongrass [17] (2.0 kg/ha).

The record behind these values is patent publication US4868321A, “Isothiocyanate intermediates” (FMC Corporation, priority 1988, dated 1989).
